Laboratory results published in ChEMBL document CHEMBL1131204, “Flavonoid derivatives as adenosine receptor antagonists: a comparison of the hypothetical receptor binding site based on a comparative molecular field analysis model” (J Med Chem, 1998).
Where “and” joins values, the source holds several entries; their conditions need not be identical. Identical values can stand only once.

Experiments:
[1] = target: T1, Adenosine receptor A1 (Rattus norvegicus) (UniProt P25099); assay: Ability to displace [3H]N6-phenylisopropyladenosine binding from adenosine A1 receptor.
T1 sequence (whole entry): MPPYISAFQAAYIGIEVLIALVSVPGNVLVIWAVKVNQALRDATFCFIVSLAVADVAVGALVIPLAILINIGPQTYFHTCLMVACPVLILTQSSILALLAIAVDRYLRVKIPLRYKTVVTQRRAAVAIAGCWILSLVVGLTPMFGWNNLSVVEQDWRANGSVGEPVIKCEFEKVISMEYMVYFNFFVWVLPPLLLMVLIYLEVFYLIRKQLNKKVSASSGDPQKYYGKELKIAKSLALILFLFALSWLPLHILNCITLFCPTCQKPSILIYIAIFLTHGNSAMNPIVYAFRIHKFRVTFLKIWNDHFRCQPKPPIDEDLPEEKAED

[2] = target: Adenosine receptor A2a (Rattus norvegicus) (UniProt P30543); assay: Ability to displace [3H]-CGS- 21680 binding from adenosine A2A receptor.
[3] = target: T2, Adenosine receptor A3 (Homo sapiens) (UniProt P0DMS8); assay: Ability to displace [125I]-AB-MECA binding from adenosine A3 receptor.
T2 sequence (whole entry): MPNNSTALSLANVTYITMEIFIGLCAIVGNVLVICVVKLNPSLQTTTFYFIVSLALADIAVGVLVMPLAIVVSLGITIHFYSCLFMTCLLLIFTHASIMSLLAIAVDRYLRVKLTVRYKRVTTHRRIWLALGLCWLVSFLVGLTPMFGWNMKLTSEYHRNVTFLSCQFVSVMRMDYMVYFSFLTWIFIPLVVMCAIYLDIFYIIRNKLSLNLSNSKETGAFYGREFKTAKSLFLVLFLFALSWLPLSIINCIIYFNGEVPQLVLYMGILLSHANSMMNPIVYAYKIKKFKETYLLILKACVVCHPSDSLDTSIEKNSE

Adenosine receptor A2a (Rattus norvegicus), sequence (P30543 whole entry): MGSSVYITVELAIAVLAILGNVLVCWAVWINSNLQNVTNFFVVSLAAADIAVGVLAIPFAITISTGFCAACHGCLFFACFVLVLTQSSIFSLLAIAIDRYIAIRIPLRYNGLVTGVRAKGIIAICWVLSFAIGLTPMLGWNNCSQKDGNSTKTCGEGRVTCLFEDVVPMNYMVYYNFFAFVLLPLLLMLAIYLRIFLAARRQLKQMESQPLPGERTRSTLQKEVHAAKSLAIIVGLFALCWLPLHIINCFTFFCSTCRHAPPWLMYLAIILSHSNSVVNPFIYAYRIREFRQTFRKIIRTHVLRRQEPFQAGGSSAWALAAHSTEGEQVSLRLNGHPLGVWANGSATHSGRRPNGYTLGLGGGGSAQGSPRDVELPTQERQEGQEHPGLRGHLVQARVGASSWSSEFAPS

`COc1ccc(-c2cc(=O)c3ccc(O)cc3o2)cc1OC` showed a pKi(uM) [1] of -1.27 and a pKi(uM) [2] of -1.54.

In the case of `O=c1c(Cl)c(-c2ccccc2)oc2ccc(Cl)cc12`, the pKi(uM) [2] is reported as -1.74.

With `CCOc1ccc(-c2oc3cc(OCC)cc(OCC)c3c(=O)c2OCC)c(OCC)c1` the pKi(uM) [3] was -0.86 and the pKi(uM) [2] was -1.42.

With `O=c1cc(-c2ccccc2)oc2cccc(O)c12` the pKi(uM) [2] was -0.79.

In the case of `CCOc1cc(OCC)c2c(=O)c(OCC)c(-c3ccccc3)oc2c1`, the pKi(uM) [3] is reported as 0.44, the pKi(uM) [1] is reported as 0.22 and the pKi(uM) [2] is reported as -0.52.

For `CCOc1c(-c2c(C)cc(C)cc2C)oc2ccc(Cl)cc2c1=O`, the pKi(uM) [3] was -0.72.

Compound `COc1ccc2oc(C#Cc3ccccc3)c(O)c(=O)c2c1` has a pKi(uM) [3] of -1.38.

`COc1ccc2c(=O)c(O)c(-c3ccc(O)c(O)c3)oc2c1` gave a pKi(uM) [3] of -0.14.

`O=c1cc(-c2ccc(O)cc2)oc2cc(O)cc(O)c12` was tested, and the pKi(uM) [1] was -0.48 and the pKi(uM) [2] was -0.88.

`O=c1c(O)c(-c2ccccc2)oc2cc(O)cc(O)c12` was tested, and the pKi(uM) [3] was -0.23.

In the case of `O=c1cc(-c2ccccc2)oc2c1ccc1ccccc12`, the pKi(uM) [1] is reported as 0.1 and the pKi(uM) [2] is reported as -0.12.

`O=C1c2ccccc2OC(c2ccccc2O)C1O` (stereo unspecified) was tested, and the pKi(uM) [1] was -1.96.

In the case of `COc1cc(OC)c(-c2oc3ccccc3c(=O)c2O)c(OC)c1`, the pKi(uM) [3] is reported as -1.7 and the pKi(uM) [1] is reported as -0.86.

For `O=C1CC(c2ccc(O)cc2)Oc2ccccc21` (stereo unspecified), the pKi(uM) [3] was -1.36 and the pKi(uM) [1] was -1.06.

`CCOc1c2ccoc2cc2oc(/C=C/C=C/c3ccccc3)cc(=O)c12` showed a pKi(uM) [3] of -1.66 and a pKi(uM) [2] of -2.22.

With `CCOc1cc(O)c2c(=O)c(OCC)c(-c3ccccc3)oc2c1` the pKi(uM) [3] was 0.13 and the pKi(uM) [2] was -1.8.

Compound `O=c1c(O)c(-c2ccc(O)c(O)c2)oc2cc(O)cc(O)c12` has a pKi(uM) [2] of -0.84.

`COc1c(O)cc2oc(-c3ccc(O)cc3)cc(=O)c2c1O` gave a pKi(uM) [1] of -0.21 and a pKi(uM) [2] of -0.88.

Work on `CC(=O)Oc1cc(OC(C)=O)c2c(=O)c(OC(C)=O)c(-c3ccccc3)oc2c1` yielded a pKi(uM) [3] of -1.24 and a pKi(uM) [1] of -1.06.

With `O=c1c(Cl)c(-c2ccccc2)oc2ccccc12` the pKi(uM) [3] was -1.06 and the pKi(uM) [2] was -1.4.

`COc1ccc(-c2oc3cc(OC)cc(OC)c3c(=O)c2OC)cc1` was tested, and the pKi(uM) [3] was -0.53 and the pKi(uM) [1] was -0.03.

Compound `COc1c2ccoc2cc2oc(/C=N/c3ccccc3)cc(=O)c12` has a pKi(uM) [3] of -0.96.

With `COc1cc(OC)c2c(=O)c(OC)c(-c3ccccc3)oc2c1` the pKi(uM) [3] was 0.08 and -0.09, the pKi(uM) [1] was 0.29 and the pKi(uM) [2] was -0.81.

`CCOc1ccc(-c2oc3cc(OCC)cc(O)c3c(=O)c2OCC)c(OCC)c1` gave a pKi(uM) [3] of -0.68.

Compound `CCOc1c2ccoc2cc2oc(/C=C/c3ccccc3)cc(=O)c12` has a pKi(uM) [3] of -0.06, a pKi(uM) [1] of -1.55 and a pKi(uM) [2] of -1.53.

For `COc1cc(OC)c2c(=O)c(OC)c(-c3cc(OC)c(OC)c(OC)c3)oc2c1`, the pKi(uM) [3] was -0.82.

For `O=C1CC(c2ccccc2)Oc2ccccc21` (stereo unspecified), the pKi(uM) [3] was -1.21.

Compound `COc1cc(O)c2c(c1)OC(c1ccc(O)cc1)CC2=O` (stereo unspecified) has a pKi(uM) [3] of -0.53, a pKi(uM) [1] of -0.91 and a pKi(uM) [2] of -1.55.

Work on `COc1ccc(-c2cc(=O)c3c(O)cc(C)cc3o2)cc1` yielded a pKi(uM) [3] of -1.7, a pKi(uM) [1] of -0.53 and a pKi(uM) [2] of -1.45.

`COc1c2ccoc2cc2oc(C=O)cc(=O)c12` gave a pKi(uM) [3] of -1.95.

`COc1ccc2c(c1)C(=O)C(O)C(C#Cc1ccccc1)O2` (stereo unspecified) gave a pKi(uM) [3] of -0.91 and a pKi(uM) [1] of -1.7.

With `Cc1ccc(-c2oc3ccc(Cl)cc3c(=O)c2Cl)c(C(C)C)c1` the pKi(uM) [3] was 0.25.

`O=c1cc(-c2ccccc2)oc2cc(O)ccc12` gave a pKi(uM) [1] of -0.48 and a pKi(uM) [2] of -0.43.

`COc1ccc2c(c1)C(=O)C(O)C(/C=C/c1ccccc1)O2` (stereo unspecified) gave a pKi(uM) [3] of -1.32.

`CC(=O)Oc1cc(OC(C)=O)c2c(c1)OC(c1ccccc1)C(OC(C)=O)C2=O` (stereo unspecified) gave a pKi(uM) [2] of -1.75.

`COc1cc2oc(-c3ccc(O)cc3)cc(=O)c2c(O)c1OC` showed a pKi(uM) [3] of -0.5, a pKi(uM) [1] of -0.08 and a pKi(uM) [2] of -0.48.

`COc1c2ccoc2cc2oc(C)cc(=O)c12` was tested, and the pKi(uM) [3] was -1.78 and the pKi(uM) [2] was -1.63.

For `COc1ccc(-c2cc(=O)c3c(OC)c(OC)c(OC)cc3o2)cc1`, the pKi(uM) [3] was -0.65 and the pKi(uM) [1] was -0.11.

`COC1(OC)Cc2oc(-c3ccc(O)cc3O)c(CC=C(C)C)c(=O)c2C(O)=C1/C=C/C(C)C` gave a pKi(uM) [3] of -0.66.

In the case of `O=C1CC(c2ccccc2O)Oc2ccccc21` (stereo unspecified), the pKi(uM) [3] is reported as -0.78, the pKi(uM) [1] is reported as -0.42 and the pKi(uM) [2] is reported as -1.25.

Compound `O=c1cc(-c2ccccc2)oc2ccccc12` has a pKi(uM) [3] of -1.23, a pKi(uM) [1] of -0.52 and a pKi(uM) [2] of -0.54.

For `COc1c2ccoc2cc2oc(/C=C/c3ccccc3)cc(=O)c12`, the pKi(uM) [3] was -0.92, the pKi(uM) [1] was -1.51 and the pKi(uM) [2] was -1.06.
